6 compounds from patent US12692269B2, “Therapeutic compounds” (Genentech, Inc., priority 2019, dated 2026) can be followed below.

Holding throughout (format): binding
One test concerns the target TEAD1 YAP50-100 (Homo sapiens, UniProt P28347). Description: TEAD1-YAP HTRF (TR-FRET) protein-protein interaction assay. The conditions noted are these: TEAD1, YAP peptide 50-100, HTRF; for EC50: read-out: TEAD1 YAP50-100 HTRF combined: EC50. Summed up:
(§1)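 TEAD YBD (aa 217-447, His-tag) + Eu anti-His; cpd 30 min; + biotin-YAP 50-100 or biotin-TAZ 13-57 / SA-XL665; 60 min RT; TR-FRET 665/615; 4-parameter IC50/EC50.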
(Time-resolved FRET reads energy transfer from a long-lived donor to a nearby acceptor.)

In another test the target is TEAD2 YAP50-100 (Homo sapiens, UniProt Q15562). Description: TEAD2-YAP HTRF (TR-FRET) protein-protein interaction assay. The conditions noted are these: TEAD2, YAP peptide 50-100, HTRF; for EC50: read-out: TEAD2 YAP50-100 HTRF combined: EC50. The gist of the method: as §1
TEAD2 YAP50-100, sequence (Q15562 217-447): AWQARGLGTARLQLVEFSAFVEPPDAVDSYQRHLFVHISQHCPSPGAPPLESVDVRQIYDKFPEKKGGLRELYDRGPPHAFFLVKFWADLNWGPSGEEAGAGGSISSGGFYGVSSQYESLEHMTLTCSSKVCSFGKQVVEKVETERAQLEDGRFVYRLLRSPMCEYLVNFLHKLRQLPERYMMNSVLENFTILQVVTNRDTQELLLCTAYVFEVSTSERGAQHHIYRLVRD
The next test deals with TEAD3 YAP50-100 (Homo sapiens, UniProt Q99594). Description: TEAD3-YAP HTRF (TR-FRET) protein-protein interaction assay. The conditions noted are these: TEAD3, YAP peptide 50-100, HTRF; for EC50: read-out: TEAD3 YAP50-100 HTRF combined: EC50. Summed up:
as §1

In another test the target is TEAD4 YAP50-100 (Homo sapiens, UniProt Q15561). Description: TEAD4-YAP HTRF (TR-FRET) protein-protein interaction assay. The note with it: TEAD4, YAP peptide 50-100, HTRF; for EC50: read-out: TEAD4 YAP50-100 HTRF combined: EC50. Summed up: as §1
TEAD4 YAP50-100, sequence (Q15561 217-434 limits assumed): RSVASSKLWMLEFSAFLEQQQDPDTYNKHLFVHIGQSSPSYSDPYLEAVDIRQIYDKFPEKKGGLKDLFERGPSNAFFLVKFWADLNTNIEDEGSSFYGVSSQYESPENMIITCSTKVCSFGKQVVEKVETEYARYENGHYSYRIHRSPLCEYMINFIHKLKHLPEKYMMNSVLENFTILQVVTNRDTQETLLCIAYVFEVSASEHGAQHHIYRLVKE
Test [1] deals with TEAD1 TAZ (amino acids 13-57) (Homo sapiens, UniProt P28347). As to the kind of experiment: TEAD1-TAZ HTRF (TR-FRET) protein-protein interaction assay. The conditions noted are these: for TEAD1 TAZ HTRF combined: Max % Inhibition: TEAD1, TAZ peptide; for EC50: TEAD1-TAZ HTRF, TR-FRET 665 nm/615 nm, read-out: TEAD1 TAZ HTRF combined: EC50. The gist of the method:
as §1

In test [2] the target is TEAD2 TAZ (amino acids 13-57) (Homo sapiens, UniProt Q15562). Description: TEAD2-TAZ HTRF (TR-FRET) protein-protein interaction assay. The conditions noted are these: for TEAD2 TAZ HTRF combined: Max % Inhibition: TEAD2, TAZ peptide; for EC50: TEAD2-TAZ HTRF, TR-FRET 665 nm/615 nm, read-out: TEAD2 TAZ HTRF combined: EC50. Summed up:
as §1

The target in test [3] is TEAD3 TAZ (amino acids 13-57) (Homo sapiens, UniProt Q99594). Description: TEAD3-TAZ HTRF (TR-FRET) protein-protein interaction assay. The conditions noted are these: for TEAD3 TAZ HTRF combined: Max % Inhibition: TEAD3, TAZ peptide; for EC50: TEAD3-TAZ HTRF, TR-FRET 665 nm/615 nm, read-out: TEAD3 TAZ HTRF combined: EC50. The gist of the method:
as §1

Test [4] concerns the target TEAD4 TAZ (amino acids 13-57) (Homo sapiens, UniProt Q15561). As to the kind of experiment: TEAD4-TAZ HTRF (TR-FRET) protein-protein interaction assay. The conditions noted are these: for TEAD4 TAZ HTRF combined: Max % Inhibition: TEAD4, TAZ peptide; for EC50: TEAD4-TAZ HTRF, TR-FRET 665 nm/615 nm, read-out: TEAD4 TAZ HTRF combined: EC50. The gist of the method:
as §1

TEAD2 TAZ (amino acids 13-57), sequence (Q15562 217-447): as the sequence (Q15562 217-447) above
TEAD4 TAZ (amino acids 13-57), sequence (Q15561 217-434 limits assumed): as the sequence (Q15561 217-434 limits assumed) above
TEAD3 TAZ (amino acids 13-57), sequence (Q99594 173-435 limits assumed): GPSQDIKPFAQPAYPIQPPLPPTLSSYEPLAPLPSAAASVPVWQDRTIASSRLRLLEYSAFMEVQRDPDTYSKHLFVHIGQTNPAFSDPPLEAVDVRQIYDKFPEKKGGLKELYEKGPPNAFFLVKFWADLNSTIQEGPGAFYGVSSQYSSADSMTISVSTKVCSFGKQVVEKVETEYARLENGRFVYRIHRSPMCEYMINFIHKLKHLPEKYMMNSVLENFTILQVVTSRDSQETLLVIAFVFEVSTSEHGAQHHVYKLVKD
TEAD3 YAP50-100, sequence (Q99594 173-435 limits assumed): as above
TEAD1 TAZ (amino acids 13-57), sequence (P28347 167-426 limits assumed): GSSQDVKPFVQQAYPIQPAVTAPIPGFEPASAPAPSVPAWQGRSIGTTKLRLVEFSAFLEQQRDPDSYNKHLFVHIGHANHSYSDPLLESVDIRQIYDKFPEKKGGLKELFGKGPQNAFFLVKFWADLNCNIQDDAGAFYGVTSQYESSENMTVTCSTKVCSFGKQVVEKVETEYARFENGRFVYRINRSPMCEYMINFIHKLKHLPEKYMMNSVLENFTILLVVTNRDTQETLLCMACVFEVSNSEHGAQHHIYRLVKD
TEAD1 YAP50-100, sequence (P28347 167-426 limits assumed): as above

The term EC50 denotes the concentration at which the effect is half-maximal. For `CC(C)(C)c1ccc(COc2cc(=O)n3nc(-c4cnccn4)c(C(=O)N4CC(CF)C4)c3[nH]2)cc1` [Compound 53, 5-((4-(Tert-butyl)benzyl)oxy)-3-(3-(fluoromethyl)azetidine-1-carbonyl)-2-(pyrazin-2-yl)pyrazolo[1,5-a]pyrimidin-7(4H)-one], at TEAD1 YAP50-100, the “TEAD1 YAP50-100 HTRF combined: Max % Inhibition” value was 72.0% and the EC50 was 50 nM. Also, on TEAD2 YAP50-100, the “TEAD2 YAP50-100 HTRF combined: Max % Inhibition” value is on record as 64.5% and the EC50 was found to be 20 nM. Also, on TEAD3 YAP50-100, the “TEAD3 YAP50-100 HTRF combined: Max % Inhibition” value turned out to be 58.5% and the EC50 is 110 nM. Further, on TEAD4 YAP50-100, the “TEAD4 YAP50-100 HTRF combined: Max % Inhibition” value came out at 65.5% and the EC50 is 50 nM. For the same compound, in test [1], the “TEAD1 TAZ HTRF combined: Max % Inhibition” value was 62.5% and the EC50 was determined as 70 nM. For the same compound, in test [2], the “TEAD2 TAZ HTRF combined: Max % Inhibition” value is recorded as 67.0% and the concentration for a half-maximal effect (EC50) was 20 nM. Moreover, in test [3], the “TEAD3 TAZ HTRF combined: Max % Inhibition” value is on record as 46.0% and the EC50 was 90 nM. Also, in test [4], the “TEAD4 TAZ HTRF combined: Max % Inhibition” value stood at 51.5% and the 50% effective concentration (EC50) worked out at 30 nM.

For the compound `O=C(c1c(-c2cccnc2)nn2c(=O)cc(-c3ccc(C4CCCCC4)cc3)[nH]c12)N1CC(CF)C1` [Compound 37, 5-(4-Cyclohexylphenyl)-3-(3-(fluoromethyl)azetidine-1-carbonyl)-2-(pyridin-3-yl)pyrazolo[1,5-a]pyrimidin-7(4H)-one], on TEAD1 YAP50-100, the “TEAD1 YAP50-100 HTRF combined: Max % Inhibition” value stood at 66.0% and the EC50 stood at 100 nM. At TEAD2 YAP50-100, the “TEAD2 YAP50-100 HTRF combined: Max % Inhibition” value turned out to be 54.5% and the EC50 was 20 nM. Besides, at TEAD3 YAP50-100, the “TEAD3 YAP50-100 HTRF combined: Max % Inhibition” value is 64.0% and the concentration for a half-maximal effect (EC50) came out at 150 nM. At TEAD4 YAP50-100, the “TEAD4 YAP50-100 HTRF combined: Max % Inhibition” value is reported as 27.5% and the concentration giving a half-maximal response (EC50) was 220 nM. In addition, in test [1], the “TEAD1 TAZ HTRF combined: Max % Inhibition” value was determined as 50.0% and the EC50 amounted to 120 nM. Besides, in test [2], the “TEAD2 TAZ HTRF combined: Max % Inhibition” value amounted to 50.0% and the EC50 stood at 20 nM. Besides, in test [3], the “TEAD3 TAZ HTRF combined: Max % Inhibition” value came out at 55.0% and the EC50 was determined as 150 nM. For the same compound, in test [4], the “TEAD4 TAZ HTRF combined: Max % Inhibition” value is on record as 16.5% and the EC50 was 160 nM.

For `CC1CCN1C(=O)c1nn2c(=O)cc(-c3ccc(C4CCCCC4)cc3)[nH]c2c1C(=O)N1CC(CF)C1` (single isomer, unassigned) [Enantiomer A, Example 33, 5-(4-Cyclohexylphenyl)-3-(3-(fluoromethyl)azetidine-1-carbonyl)-2-(2-methylazetidine-1-carbonyl)pyrazolo[1,5-a]pyrimidin-7(4H)-one], at TEAD1 YAP50-100, the “TEAD1 YAP50-100 HTRF combined: Max % Inhibition” value came out at 71.0% and the concentration giving a half-maximal response (EC50) was 70 nM. Besides, at TEAD2 YAP50-100, the “TEAD2 YAP50-100 HTRF combined: Max % Inhibition” value worked out at 67.5% and the EC50 was determined as 20 nM. In addition, on TEAD3 YAP50-100, the “TEAD3 YAP50-100 HTRF combined: Max % Inhibition” value is given as 71.5% and the EC50 turned out to be 180 nM. For the same compound, on TEAD4 YAP50-100, the “TEAD4 YAP50-100 HTRF combined: Max % Inhibition” value was 48.5% and the EC50 worked out at 460 nM. For the same compound, in test [1], the “TEAD1 TAZ HTRF combined: Max % Inhibition” value is given as 61.5% and the EC50 amounted to 100 nM. For the same compound, in test [2], the “TEAD2 TAZ HTRF combined: Max % Inhibition” value is on record as 63.0% and the EC50 was 20 nM. Further, in test [3], the “TEAD3 TAZ HTRF combined: Max % Inhibition” value came to 58.5% and the EC50 turned out to be 210 nM. Also, in test [4], the “TEAD4 TAZ HTRF combined: Max % Inhibition” value worked out at 41.5% and the EC50 is 410 nM.

Regarding `Cc1nccnc1-c1nn2c(=O)cc(-c3ccc(C(F)(F)C4CCCC4)cc3)[nH]c2c1C(=O)N1CC(CF)C1` [Compound 56, 5-(4-(Cyclopentyldifluoromethyl)phenyl)-3-(3-(fluoromethyl)azetidine-1-carbonyl)-2-(3-methylpyrazin-2-yl)pyrazolo[1,5-a]pyrimidin-7(4H)-one], on TEAD1 YAP50-100, the “TEAD1 YAP50-100 HTRF combined: Max % Inhibition” value is listed as 57.0% and the EC50 came out at 60 nM. In addition, on TEAD2 YAP50-100, the “TEAD2 YAP50-100 HTRF combined: Max % Inhibition” value stood at 61.0% and the EC50 worked out at 10 nM. On TEAD3 YAP50-100, the “TEAD3 YAP50-100 HTRF combined: Max % Inhibition” value is recorded as 49.5% and the EC50 was 100 nM. For the same compound, at TEAD4 YAP50-100, the “TEAD4 YAP50-100 HTRF combined: Max % Inhibition” value came to 33.0% and the EC50 was determined as 30 nM. In test [1], the “TEAD1 TAZ HTRF combined: Max % Inhibition” value amounted to 57.0% and the EC50 is 70 nM. In addition, in test [2], the “TEAD2 TAZ HTRF combined: Max % Inhibition” value is 60.0% and the EC50 turned out to be 10 nM. Further, in test [3], the “TEAD3 TAZ HTRF combined: Max % Inhibition” value is 43.0% and the EC50 is 110 nM. In test [4], the “TEAD4 TAZ HTRF combined: Max % Inhibition” value turned out to be 35.0% and the EC50 came to 20 nM.

Consider `Cc1nccnc1-c1nn2c(=O)cc(-c3ccc(C4CCCC4)cc3)[nH]c2c1C(=O)N1C[C@H](CF)[C@@H]1C` [Compound 69, 5-(4-Cyclopentylphenyl)-3-((2S,3S)-3-(fluoromethyl)-2-methylazetidine-1-carbonyl)-2-(3-methylpyrazin-2-yl)pyrazolo[1,5-a]pyrimidin-7(4H)-one], for which, at TEAD1 YAP50-100, the “TEAD1 YAP50-100 HTRF combined: Max % Inhibition” value is on record as 79.0% and the EC50 is 40 nM. Also, at TEAD2 YAP50-100, the “TEAD2 YAP50-100 HTRF combined: Max % Inhibition” value is recorded as 76.0% and the EC50 turned out to be 10 nM. For the same compound, at TEAD3 YAP50-100, the “TEAD3 YAP50-100 HTRF combined: Max % Inhibition” value was found to be 80.0% and the EC50 came to 110 nM. Further, at TEAD4 YAP50-100, the “TEAD4 YAP50-100 HTRF combined: Max % Inhibition” value is 62.5% and the EC50 was 170 nM. In test [1], the “TEAD1 TAZ HTRF combined: Max % Inhibition” value is recorded as 73.5% and the EC50 came to 50 nM. For the same compound, in test [2], the “TEAD2 TAZ HTRF combined: Max % Inhibition” value was determined as 75.5% and the EC50 turned out to be 10 nM. Besides, in test [3], the “TEAD3 TAZ HTRF combined: Max % Inhibition” value was determined as 75.5% and the EC50 amounted to 120 nM. Moreover, in test [4], the “TEAD4 TAZ HTRF combined: Max % Inhibition” value was determined as 65.5% and the EC50 amounted to 130 nM.

In the case of `C[C@H]1[C@@H](CF)CN1C(=O)c1c(-c2cnccn2)nn2c(=O)cc(-c3ccc(C4CCCCC4)cc3)[nH]c12` (single isomer, unassigned) [Isomer A, Example 39], on TEAD1 YAP50-100, the “TEAD1 YAP50-100 HTRF combined: Max % Inhibition” value came to 76.0% and the EC50 is 60 nM. On TEAD2 YAP50-100, the “TEAD2 YAP50-100 HTRF combined: Max % Inhibition” value is given as 76.0% and the EC50 amounted to 10 nM. In addition, at TEAD3 YAP50-100, the “TEAD3 YAP50-100 HTRF combined: Max % Inhibition” value is on record as 71.0% and the EC50 worked out at 120 nM. Further, on TEAD4 YAP50-100, the “TEAD4 YAP50-100 HTRF combined: Max % Inhibition” value is recorded as 51.5% and the EC50 came to 60 nM. In addition, in test [1], the “TEAD1 TAZ HTRF combined: Max % Inhibition” value amounted to 69.5% and the EC50 stood at 70 nM. In addition, in test [2], the “TEAD2 TAZ HTRF combined: Max % Inhibition” value stood at 77.0% and the EC50 amounted to 10 nM. Moreover, in test [3], the “TEAD3 TAZ HTRF combined: Max % Inhibition” value was determined as 69.5% and the EC50 was determined as 130 nM. In addition, in test [4], the “TEAD4 TAZ HTRF combined: Max % Inhibition” value came out at 58.0% and the EC50 amounted to 60 nM.
